Experimental data published in ChEMBL document CHEMBL1158896, “Isolation and structure of the cytotoxic cycloheptapeptide phakellistatin 13” (2003).
Calls of active or inactive are those of the source. The rule behind the calls is not given here. Where a SMILES comes first, the peptide text is derived from it.

Legend:
HL-60 = assay: Cytotoxicity against human HL60 cells; assay type: functional, cell-based
[1] = Cytotoxicity against human Bel7404 cells; assay type: functional; conditions: BEL-7404, read-out: ED50 (the source's name)

Compound | Activity (HL-60) | EC50 [1] [µg/mL]
CC(C)C[C@@H]1NC(=O)[C@H]([C@@H](C)O)NC(=O)[C@@H]2CCCN2C(=O)CNC(=O)[C@H](Cc2ccccc2)NC(=O)[C@@H]2CCCN2C(=O)[C@H](Cc2c[nH]c3ccccc23)NC1=O (cyclo(FGPTLWP)) | inactive | –
CC(C)C[C@@H]1NC(=O)[C@H](Cc2c[nH]c3ccccc23)NC(=O)[C@@H]2CCCN2C(=O)[C@H](Cc2ccccc2)NC(=O)CNC(=O)[C@@H]2CCCN2C(=O)[C@H]([C@@H](C)O)NC1=O [PHAKELLISTATIN 13] (cyclo(FPWLTPG)) | – | < 0.01
